Consider 3 compounds from patent US10059717B2, “Urea compounds containing 3,4-dihydropyrimido[4,5-D]pyrimidin-2(1H)-one skeleton as protein kinase inhibitors” (KOREA INSTITUTE OF SCIENCE AND TECHNOLOGY, priority 2016, dated 2018).

Test [1] deals with cell samples from AML patients with actual NRAS mutants. As to conditions: cited from earlier work.
Test [2] has as its system preclinical leukemia models. As to conditions: cited from earlier work.
For the next test, the system named is U937 (N-Ras WT). Put plainly: Proliferation inhibitory activity, U937. The test is classed as cell-based. Conditions: Homo sapiens, U-937; U937 (N-Ras WT) cell line; read-out: Proliferation inhibitory efficacy (GI50, μM) U937 (N-Ras WT). The method, then:
(§1) GI50 values were calculated by measuring the proliferation inhibitory efficacy of the compounds of the present invention on mt-NRAS (G12D) Ba/F3, U937 (wt-NRAS) and OCI-AML3 (mt-NRAS) cell lines.

A further test has as its target ACK1 (Homo sapiens, UniProt Q07912). Put plainly: ACK1 kinase inhibitory activity. As to conditions: read-out: Kinase inhibitory efficacy, GI50 ACK1. The test is classed as biochemical. The protocol: (§2) GI50 values were calculated by measuring the inhibitory efficacy of the compounds of the present invention against both GCK and ACK1 kinases.
A further test relates to Ba/F3 (N-Ras G12D). As to the kind of experiment: Proliferation inhibitory activity, Ba/F3. In kind it is cell-based. Conditions: Mus musculus, BaF3; Ba/F3 (N-Ras G12D) cell line; read-out: Proliferation inhibitory efficacy (GI50, μM) Ba/F3 (N-Ras G12D). The protocol:
as §1

The test system of another test is OCI-AML3 (N-Ras Q61L). Put plainly: Proliferation inhibitory activity, OCI-AML3. In kind it is cell-based. As to conditions: Homo sapiens, OCI-AML-3; OCI-AML3 (N-Ras Q61L) cell line; read-out: Proliferation inhibitory efficacy (GI50, μM) OCI-AML3 (N-Ras Q61L). The protocol:
as §1
Accordingly, the compounds of the present invention are particularly effective as a therapeutic agent for acute myelogenous leukemia (AML).

The next test concerns the target T1, GCK (Homo sapiens, UniProt Q12851).
T1 sequence (Q12851 1-820): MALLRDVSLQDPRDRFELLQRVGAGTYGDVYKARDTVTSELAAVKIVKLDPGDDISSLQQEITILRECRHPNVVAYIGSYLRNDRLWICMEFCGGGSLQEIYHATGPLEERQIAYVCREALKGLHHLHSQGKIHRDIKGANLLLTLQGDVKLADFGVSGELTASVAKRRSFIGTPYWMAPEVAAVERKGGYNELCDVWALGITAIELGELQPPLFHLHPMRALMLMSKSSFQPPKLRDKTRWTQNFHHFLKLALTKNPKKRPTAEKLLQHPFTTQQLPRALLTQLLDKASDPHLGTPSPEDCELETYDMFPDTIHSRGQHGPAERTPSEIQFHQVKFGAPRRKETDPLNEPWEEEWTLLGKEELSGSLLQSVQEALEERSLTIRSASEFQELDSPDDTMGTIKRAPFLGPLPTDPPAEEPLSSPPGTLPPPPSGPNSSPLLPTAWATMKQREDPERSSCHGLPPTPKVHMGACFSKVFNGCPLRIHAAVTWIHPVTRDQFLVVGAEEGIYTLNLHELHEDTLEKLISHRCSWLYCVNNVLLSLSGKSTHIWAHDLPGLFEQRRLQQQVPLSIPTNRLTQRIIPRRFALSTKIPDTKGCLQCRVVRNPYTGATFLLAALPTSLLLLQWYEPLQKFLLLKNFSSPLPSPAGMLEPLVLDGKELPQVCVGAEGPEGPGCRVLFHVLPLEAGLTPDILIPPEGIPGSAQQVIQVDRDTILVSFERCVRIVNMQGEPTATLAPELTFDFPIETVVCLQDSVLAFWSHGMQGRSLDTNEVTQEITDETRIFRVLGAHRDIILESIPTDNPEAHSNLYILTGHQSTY
Put plainly: GCK kinase inhibitory activity. As to conditions: read-out: Kinase inhibitory efficacy, GI50 GCK. The test is classed as biochemical. The protocol:
as §2

Sequence of ACK1 (Q07912 whole entry): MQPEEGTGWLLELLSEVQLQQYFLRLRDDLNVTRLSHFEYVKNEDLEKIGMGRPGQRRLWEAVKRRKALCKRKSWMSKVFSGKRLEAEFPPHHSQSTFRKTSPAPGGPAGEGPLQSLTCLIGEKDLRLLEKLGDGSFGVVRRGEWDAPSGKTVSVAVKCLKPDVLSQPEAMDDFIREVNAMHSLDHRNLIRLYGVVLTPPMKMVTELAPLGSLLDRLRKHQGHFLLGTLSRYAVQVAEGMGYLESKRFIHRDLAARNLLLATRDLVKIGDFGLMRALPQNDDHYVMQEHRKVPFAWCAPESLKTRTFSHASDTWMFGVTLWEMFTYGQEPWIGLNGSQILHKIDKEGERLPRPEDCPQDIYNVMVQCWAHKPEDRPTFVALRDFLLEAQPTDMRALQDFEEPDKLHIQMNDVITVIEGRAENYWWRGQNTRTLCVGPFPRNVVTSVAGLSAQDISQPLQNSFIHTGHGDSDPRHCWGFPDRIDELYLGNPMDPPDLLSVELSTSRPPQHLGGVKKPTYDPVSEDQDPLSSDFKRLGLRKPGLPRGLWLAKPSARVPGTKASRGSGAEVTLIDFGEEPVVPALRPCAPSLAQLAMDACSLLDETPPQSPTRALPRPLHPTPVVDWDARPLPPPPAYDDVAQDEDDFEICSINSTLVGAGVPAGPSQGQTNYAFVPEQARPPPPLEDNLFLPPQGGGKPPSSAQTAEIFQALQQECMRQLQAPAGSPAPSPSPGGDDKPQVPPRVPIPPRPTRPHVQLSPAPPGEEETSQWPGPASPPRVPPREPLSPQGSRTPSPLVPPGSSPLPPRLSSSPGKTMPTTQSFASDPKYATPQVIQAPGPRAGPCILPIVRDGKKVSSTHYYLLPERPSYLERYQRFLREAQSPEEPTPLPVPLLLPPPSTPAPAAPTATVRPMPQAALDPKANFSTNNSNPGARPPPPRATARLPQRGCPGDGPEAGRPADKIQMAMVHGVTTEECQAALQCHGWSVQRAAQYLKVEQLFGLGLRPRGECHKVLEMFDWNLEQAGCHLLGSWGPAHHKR

With `Cc1ccc(Nc2ncc3c(n2)N(C)C(=O)N(c2cc(NC(=O)c4cccc(C(F)(F)F)c4)ccc2C)C3)cn1` [GNF 7], the “efficacy in cell samples from AML patients” value in test [1] is “exhibited its efficacy”. The “inhibitory effects in preclinical leukemia models” value in test [2] is on record as “inhibitory effects in preclinical leukemia models have been observed”.
`COc1ccccc1NC(=O)Nc1ccc(C)c(N2Cc3cnc(Nc4ccc(N5CCN(C(C)=O)CC5)nc4)nc3N(C)C2=O)c1` [Compound No. 13, 1-(3-(7-((6-(4-acetylpiperazin-1-yl)pyridin-3-yl)amino)-1-methyl-2-oxo-1,4-dihydropyrimido[4,5-d]pyrimidin-3(2H)-yl)-4-methylphenyl)-3-(2-methoxyphenyl)urea]: the GI50 with U937 (N-Ras WT) was at least 5 µM; at ACK1 it was under 30 nM; in the test on Ba/F3 (N-Ras G12D), under 0.5 µM; in the test on OCI-AML3 (N-Ras Q61L) it was under 0.5 µM; on GCK, under 30 nM.
For the compound `COc1ccccc1NC(=O)Nc1ccc(C)c(N2Cc3cnc(Nc4ccc(C)nc4)nc3N(C)C2=O)c1` [Compound No. 1, 1-(2-methoxyphenyl)-3-(4-methyl-3-(1-methyl-7-((6-methylpyridin-3-yl)amino)-2-oxo-1,4-dihydropyrimido[4,5-d]pyrimidin-3(2H)-yl)phenyl)urea], the GI50 is at least 5 µM in the test on U937 (N-Ras WT); under 30 nM at ACK1; under 0.5 µM in the test with Ba/F3 (N-Ras G12D); under 0.5 µM in the test on OCI-AML3 (N-Ras Q61L); 30 to 100 nM at GCK.
